In the supplement of paper PMC10307832:

Columns and labels:
Assay in all cases: relative viability (nuclei count vs DMSO), 5 days (fraction); higher = more cells survive
[1] = compound: COc1cc([C@@H]2c3cc4c(cc3[C@@H](O[C@@H]3O[C@@H]5CO[C@@H](C)O[C@H]5[C@H](O)[C@H]3O)[C@H]3COC(=O)[C@H]23)OCO4)cc(OC)c1O [Etoposide] + Nc1ncn([C@H]2C[C@H](O)[C@@H](CO)O2)c(=O)n1 [Decitabine] (partner 2 µM)
Summary of the method: (§1)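 Cells from lung cancer lines were seeded into 1536-well plates and, one day later, dosed by pin tool. Treatments were either a single drug or a fixed dose of an anchor drug with five library-drug doses (not always all listed) in √10 steps. After 5 days, nuclei were stained in a one-step fixation (final 0.05% Triton X-100, 1% formaldehyde, 1 ug/ml Hoechst) and counted on 4× images, and relative viability is the treated-to-vehicle nuclei ratio, as the median of duplicate plates.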

[2] = compound: COc1cc([C@@H]2c3cc4c(cc3[C@@H](O[C@@H]3O[C@@H]5CO[C@@H](C)O[C@H]5[C@H](O)[C@H]3O)[C@H]3COC(=O)[C@H]23)OCO4)cc(OC)c1O [Etoposide] + O=C(CCCCCCC(=O)Nc1ccccc1)NO [Vorinostat] (partner 1 µM)
Summary of the method: as §1

[3] = compound: CC1=C(N=C(N=C1N)[C@H](CC(=O)N)NC[C@@H](C(=O)N)N)C(=O)N[C@@H]([C@H](C2=CN=CN2)OC3C(C(C(C(O3)CO)O)O)OC4C(C(C(C(O4)CO)O)OC(=O)N)O)C(=O)N[C@H](C)[C@H]([C@H](C)C(=O)N[C@@H]([C@@H](C)O)C(=O)NCCC5=NC(=CS5)C6=NC(=CS6)C(=O)NCCC[S+](C)C)O [Bleomycin] + O=C(CCCCCCC(=O)Nc1ccccc1)NO [Vorinostat] (partner 1 µM); settings: main component drawn
Summary of the method: as §1

[4] = compound: COc1cc([C@@H]2c3cc4c(cc3[C@@H](O[C@@H]3O[C@@H]5CO[C@@H](C)O[C@H]5[C@H](O)[C@H]3O)[C@H]3COC(=O)[C@H]23)OCO4)cc(OC)c1O [Etoposide] + Cc1nc(Nc2ncc(C(=O)Nc3c(C)cccc3Cl)s2)cc(N2CCN(CCO)CC2)n1 [Dasatinib] (partner 0.075 µM)
Summary of the method: as §1

| Cell Line | relative viability ([1]; first compound 0.01 µM) | relative viability ([1]; first compound 0.03162 µM) | relative viability ([1]; first compound 0.1 µM) | relative viability ([1]; first compound 0.3162 µM) | relative viability ([1]; first compound 1 µM) | relative viability ([2]; first compound 0.01 µM) | relative viability ([2]; first compound 0.03162 µM) | relative viability ([2]; first compound 0.1 µM) | relative viability ([2]; first compound 0.3162 µM) | relative viability ([2]; first compound 1 µM) | relative viability ([3]; first compound 0.03162 µM) | relative viability ([3]; first compound 0.1 µM) | relative viability ([3]; first compound 0.3162 µM) | relative viability ([3]; first compound 1 µM) | relative viability ([4]; first compound 0.01 µM) | relative viability ([4]; first compound 0.03162 µM) | relative viability ([4]; first compound 0.1 µM) | relative viability ([4]; first compound 0.3162 µM) | relative viability ([4]; first compound 1 µM) | relative viability ([3]; first compound 0.01 µM) |
| --- | --- | --- | --- | --- | --- | --- | --- | --- | --- | --- | --- | --- | --- | --- | --- | --- | --- | --- | --- | --- |
| EMC-BAC-2 | 0.938 | 0.893 | 0.606 | 0.323 | 0.298 | 0.636 | 0.428 | 0.239 | 0.153 | 0.139 | 0.472 | 0.36 | 0.28 | 0.18 | 0.319 | 0.333 | 0.193 | 0.16 | 0.112 |  |
| LK-2 | 0.289 | 0.302 | 0.159 | 0.177 | 0.171 | 0.317 | 0.374 | 0.165 | 0.158 | 0.149 | 0.281 | 0.217 | 0.209 | 0.195 | 0.248 | 0.297 | 0.275 | 0.301 | 0.181 | 0.232 |
| NCI-H2228 |  |  |  |  |  | 0.577 | 0.668 | 1.07 | 0.272 | 0.142 | 0.557 | 0.486 | 0.17 | 0.22 | 0.61 | 0.473 | 0.306 | 0.418 | 0.131 | 0.637 |
| NCI-H322M | 0.71 | 0.696 | 0.584 | 0.623 | 0.563 | 0.863 | 0.962 | 0.73 | 0.728 | 0.611 | 0.888 | 0.818 | 0.577 | 0.647 | 0.272 | 0.237 | 0.232 | 0.26 | 0.254 | 0.815 |
| NCI-H1975 | 0.371 | 0.757 | 0.4 | 0.249 | 0.212 | 0.726 | 0.728 | 0.739 | 0.476 | 0.328 | 0.514 | 0.386 | 0.215 | 0.162 | 0.336 | 0.426 | 0.32 | 0.348 | 0.214 | 0.482 |
| NCI-H1944 | 0.396 | 0.459 | 0.384 | 0.36 | 0.296 | 0.532 | 0.532 | 0.334 | 0.282 | 0.147 | 0.244 | 0.265 | 0.154 | 0.152 | 0.213 | 0.23 | 0.159 | 0.189 | 0.102 | 0.284 |
| LU99A | 0.893 | 0.928 | 0.504 | 0.473 | 0.246 | 0.489 | 0.533 | 0.23 | 0.297 | 0.108 | 0.392 | 0.353 | 0.207 | 0.125 | 0.427 | 0.727 | 0.262 | 0.395 | 0.142 | 0.394 |
| NCI-H2405 | 0.732 | 0.808 | 0.563 | 0.519 | 0.328 | 1.11 | 1.12 | 0.765 | 0.742 | 0.27 | 1 | 0.816 | 0.59 | 0.321 | 0.219 | 0.23 | 0.239 | 0.197 | 0.199 | 0.792 |
| NCI-H2009 | 0.396 | 0.425 | 0.316 | 0.354 | 0.234 | 0.704 | 0.631 | 0.571 | 0.597 | 0.409 | 0.739 | 0.854 | 0.541 | 0.36 | 0.288 | 0.313 | 0.218 | 0.282 | 0.207 | 0.662 |
| HCC-15 | 0.667 | 0.665 | 0.668 | 0.286 | 0.174 | 0.766 | 0.894 | 0.779 | 0.275 | 0.178 | 0.864 | 0.702 | 0.327 | 0.249 | 0.623 | 0.64 | 0.537 | 0.261 | 0.0797 | 0.77 |
| HCC-44 | 1 | 1.06 | 0.984 | 0.905 | 0.55 | 1.12 | 1.04 | 1.21 | 1.02 | 0.727 | 0.989 | 0.733 | 0.459 | 0.383 |  |  |  |  |  | 0.906 |
| COR-L23 | 0.407 | 0.471 | 0.337 | 0.377 | 0.176 | 0.48 | 0.487 | 0.352 | 0.214 | 0.13 | 0.392 | 0.218 | 0.104 | 0.0886 | 0.398 | 0.461 | 0.428 | 0.26 | 0.161 | 0.273 |
| HCC-78 | 0.669 | 0.697 | 0.429 | 0.317 | 0.265 | 0.396 | 0.494 | 0.329 | 0.256 | 0.242 | 0.362 | 0.487 | 0.399 | 0.391 | 0.435 | 0.39 | 0.33 | 0.334 | 0.152 | 0.388 |
| NCI-H1648 |  | 0.513 | 0.454 | 0.466 | 0.341 |  | 0.58 | 0.306 | 0.3 | 0.329 | 0.324 | 0.275 | 0.257 | 0.271 |  |  |  |  |  | 0.46 |
| NCI-H1563 |  |  |  |  |  |  |  |  |  |  |  |  |  |  | 0.416 | 0.514 | 0.435 | 0.387 | 0.349 |  |
| A549 | 0.24 | 0.326 | 0.195 | 0.114 | 0.0774 |  |  |  |  |  |  |  |  |  |  |  |  |  |  |  |
| NCI-H1623 |  |  |  |  |  |  |  |  |  |  |  |  |  |  | 0.68 | 0.592 | 0.334 | 0.267 | 0.294 |  |
| IA-LM |  |  |  |  |  | 0.701 | 1 | 0.577 | 0.826 | 0.354 | 0.802 | 0.801 | 0.398 | 0.635 |  |  |  |  |  | 0.791 |
| CAL-12T |  |  |  |  |  | 0.798 | 0.782 | 0.724 | 0.403 | 0.213 | 0.532 | 0.351 | 0.166 | 0.155 | 0.345 | 0.473 | 0.351 | 0.396 | 0.196 | 0.542 |
